The text below walks through data of patent US20200054657A1, “Compositions of Matter and Methoods to Treat Cancer” (priority 2018, published 2020).

Data set [1] concerns HT29 human colonic cancer cells. Nature of the data set: viability of HT29 colonic cancer cells. Particulars: HT29 (FIG. 7); for enhancing effect of Andrographolide on the response: in the presence of Andrographolide; for reduction in viability: single agents.
Data set [2] concerns AsPC-1 human pancreatic cancer cells. Nature of the data set: viability of AsPC-1 pancreatic cancer cells. In kind it is cell-based. As to conditions: for enhancing effect of Andrographolide on the response: in the presence of Andrographolide; for enhancing effect of Andrographolide on the response / reduction in viability: AsPC-1 (FIG. 6); for comparison of effects on cell viability / reduction in viability: single agents; for comparison of effects on cell viability: AsPC-1 (FIG. 5). How it is done:
Andrographolide at 1 mM and Frondoside A (between 1 mM and 3 mM) were assayed for anticancer effects on the viability of the two human pancreatic cancer cell lines, AsPC-1 and S2013.

Data set [3] in a line: pharmacokinetics study by oral route, LC/MS/MS detection in the blood. The data set is classed as in vivo, humans. How it is done:
In a pharmacokinetics and pharmacodynamics study of Frondoside A by oral route in humans, as are known to those skilled in the arts, dosage of 10 milligrams of Frondoside A is delivered in an enteric coated gelatin capsule, as are known to those skilled in the arts and is detected by LC/MS/MS in the blood up to 20 hours later. In a pharmacokinetics and pharmacodynamics study in a huma of Frondoside A by oral route in humans, a dosage of 10 milligrams of Frondoside A in a capsule without the benefit of enteric coated capsule delivery, is not detected by LC/MS/MS in the blood up to 20 hours later.

For data set [4] the following is noted: lack of change in CBC, liver function tests, body weight; cited from earlier work.
The conditions of data set [5]: mice; cited from earlier work.
The next data set has as its target PAK-1 kinase (Homo sapiens, UniProt Q13153). As to conditions: in vitro; cited from earlier work.
The next data set deals with THP-1. Nature of the data set: viability of THP-1 acute leukemia cells. The data set is classed as cell-based. Particulars: Homo sapiens; Andrographolide (50 μM) alone; second cell line not named in the sentence (THP-1). How it is done: (§1) FIG. 3. […] Andrographolide (50 μM) alone reduced cell viability to 54.3±2.8% in CCRF-CEM cells and to 68.5±1.4%. *** =P<0.001.
(§2) Andrographolide (50 μM) and Frondoside A (between 1 and 3 mM) was assayed for anticancer effects through determining cell viability of the two human, acute leukemia cell lines CCRF-CEM and THP-1. […] Andrographolide (50 μM) alone reduced cell viability to 54.3±2.8% in CCRF-CEM cells and to 68.5±1.4%. (FIG. 3)

The next data set has as its system CCRF-CEM. Nature of the data set: viability of CCRF-CEM acute leukemia cells. The data set is classed as cell-based. As to conditions: Homo sapiens, Andrographolide (50 μM) alone, read-out: cell viability. How it is done: as §1, §2

Molecules are shown by their SMILES. “Also recorded” adds a separate entry of the source.

PAK-1 kinase, sequence (Q13153 whole entry): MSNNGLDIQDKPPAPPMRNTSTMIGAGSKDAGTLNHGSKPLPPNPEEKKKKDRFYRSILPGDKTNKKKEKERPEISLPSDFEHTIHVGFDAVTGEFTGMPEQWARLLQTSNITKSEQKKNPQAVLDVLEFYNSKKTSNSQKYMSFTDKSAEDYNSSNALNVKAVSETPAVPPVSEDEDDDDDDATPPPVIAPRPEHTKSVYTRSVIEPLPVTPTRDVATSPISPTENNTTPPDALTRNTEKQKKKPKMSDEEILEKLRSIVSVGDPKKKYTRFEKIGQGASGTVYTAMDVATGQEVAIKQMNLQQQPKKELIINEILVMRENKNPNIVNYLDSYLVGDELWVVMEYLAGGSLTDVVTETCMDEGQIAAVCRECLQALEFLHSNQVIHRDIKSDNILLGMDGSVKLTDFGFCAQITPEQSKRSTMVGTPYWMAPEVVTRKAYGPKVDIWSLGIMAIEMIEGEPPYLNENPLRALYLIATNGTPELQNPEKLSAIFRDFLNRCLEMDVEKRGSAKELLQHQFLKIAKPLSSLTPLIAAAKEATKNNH

For the compound `CCn1c(=O)c(-c2ccc(-c3cncs3)cc2Cl)cc2cnc(Nc3ccc(N4CCN(C)CC4)cc3)nc21` [FRAX597], in data set [1], the “enhancing effect of Andrographolide on the response” value (from here on “enhancing effect of Andrographolide”) is reported as “no enhancing effect; also recorded: tendency of the reduced effectiveness” and the reduction in viability result is recorded as “modest dose responsive reduction in viability”. For the same compound, in [2], the “enhancing effect of Andrographolide” value is recorded as “no enhancing effect; also recorded: tendency of the reduced effectiveness”, the “comparison of effects on cell viability” value was “less potent anti-cancer compounds” and the reduction in viability result is “dose responsive reduction in viability”.

For `CCn1c(=O)c(-c2ccc(-c3cncc(C)n3)cc2Cl)cc2cnc(NCCC3CCN(C)CC3)nc21` [FRAX1036], in [1], the “enhancing effect of Andrographolide” value is reported as “no enhancing effect” and the reduction in viability entry is “modest dose responsive reduction in viability”. Moreover, in [2], the “enhancing effect of Andrographolide” value is given as “no enhancing effect”, the “comparison of effects on cell viability” value is listed as “less potent anti-cancer compounds” and the reduction in viability result is given as “dose responsive reduction in viability”.

As for `CO[C@@H]1[C@@H](O)[C@H](O[C@@H]2[C@@H](O)[C@H](O[C@H]3[C@H](O)[C@@H](O[C@@H]4OC[C@@H](O)[C@H](O)[C@H]4O)[C@H](O[C@H]4[C@H](OC5CC[C@]6(C)[C@H]7CCC89C(=O)O[C@@](C)(CCCC(C)C)C8[C@@H](OC(C)=O)C[C@@]9(C)C7=CC[C@H]6C5(C)C)OC[C@@H](OS(=O)(=O)[O-])[C@@H]4O)O[C@@H]3C)OC[C@H]2O)O[C@H](CO)[C@H]1O.[Na+]` (stereo partly drawn) [Frondoside A], the “LD50 relative to the dose used therapeutically” value in “LD50 in mice” is “more than 1000 times”. Further, in data set [3] (10 milligrams in a capsule without enteric coating, human), the “detected by LC/MS/MS in the blood up to 20 hours later” value is “not detected”. In data set [3] (10 milligrams in an enteric coated gelatin capsule, humans), the “detected by LC/MS/MS in the blood” value is listed as “up to 20 hours”. Besides, the “toxic effects at therapeutic doses” value in data set [4] was “does not have toxic effects at therapeutic doses”. The LD50 – broadly, the dose expected to kill half of the subjects tested – in data set [5] is on record as 9.9 mg/kg. At PAK-1 kinase, the PAK-1 inhibition entry was “inhibitor of PAK-1 kinase”.

On to `C=C1CC[C@@H]2[C@](C)(CO)[C@H](O)CC[C@@]2(C)[C@@H]1C/C=C1/C(=O)OC[C@H]1O` [Andrographolide], for which the viability (commonly a per cent measure of how many cells are alive, often set against a control) at 50 µM with THP-1 turned out to be 68.5 ± 1.4%; with CCRF-CEM it was 54.3 ± 2.8%.
